From US12344646B2, “Antibody-TNF α fusion protein and its preparation and applications” (priority 2018, dated 2025)
Starred links: 1 amine or outer side, 2 acyl side, 3 side chain; linkers in the order of their positions; H or OH if unused. Positions of bridges follow the written chain, without caps; N, C: chain ends. Non-standard residues stand in square brackets, D forms with d. Residues, ends and D or L forms follow the SMILES beside them. Chains are numbered I, II in the order given. Actinocin(9to1) = Cc1c2oc3c(C)ccc(C(=O)[*:1])c3nc-2c(C(=O)[*:2])c(N)c1=O; NMeV = CN[C@H](C(=O)O)C(C)C; Sar = CNCC(=O)O

Key:
[1] = tested on: Her-2 positive human gastric cancer cells NCI-N87; assay: Cytotoxicity of Her-2 antibody-TNFα fusion protein on NCI-N87 cells; type: cell-based; details: at concentrations corresponding to the fusion protein below 20 ng/ml
Experimental: FIG. 7A: the NCI-N87 cells were incubated with the antibody-TNFα fusion protein at different concentrations for 1 day; and cell survival was detected using a CCK-8 kit.
The day before experiment, the cells ([…]) in growth medium (150 μl) were added onto a 96-well plate. […] Cell viability was detected using MTT assay and cell viability using CCK-8.

[2] = tested on: SKOV-3 cells; assay: Synergistic apoptosis with chemotherapeutic, SKOV-3; type: cell-based, human; details: 15 nM actinomycin D alone
Experimental: (§1) FIG. 9A: Her-2 positive human tumor cells (NCI-N87, SKBR-3 and SKOV-3) were cultured in the presence of the fusion protein, actinomycin D or both for 1 day; and cell viability was detected using a CCK-8 kit.
(§2) In the following, the Her-2 positive tumor cells were all obtained from the Cell Bank of the Chinese Academy of Sciences. […] Cell viability was detected by MTT assay.

[3] = tested on: NCI-N87 cells; assay: Synergistic apoptosis with chemotherapeutic, NCI-N87; type: cell-based, human; set-up: effect on viability of NCI-N87 cells: dose or concentration left out as unconfirmed
Excerpt: FIG. […]
as §2

[4] = tested on: SKBR-3 cells; assay: Synergistic apoptosis with chemotherapeutic, SKBR-3; type: cell-based, human; details: 15 nM actinomycin D alone
Experimental: as §1, §2

[5] = tested on: BT-474 cells; assay: Synergistic apoptosis with chemotherapeutic, BT-474; type: cell-based, human; details: 33 μM or 11 μM doxorubicin alone

TNFα
apoptosis in NCI-N87 cells [1]: induced no or little apoptosis

Cc1c2oc3c(C)ccc(C(=O)N[C@@H]4C(=O)N[C@H](C(C)C)C(=O)N5CCC[C@H]5C(=O)N(C)CC(=O)N(C)[C@@H](C(C)C)C(=O)O[C@@H]4C)c3nc-2c(C(=O)N[C@@H]2C(=O)N[C@H](C(C)C)C(=O)N3CCC[C@H]3C(=O)N(C)CC(=O)N(C)[C@@H](C(C)C)C(=O)O[C@@H]2C)c(N)c1=O [actinomycin D] (I: T[dV]P[Sar][NMeV] / II: T[dV]P[Sar][NMeV]; ester I:1-I:C, II:1-II:C; linker I:N-II:N via Actinocin(9to1))
impact on survival of SKOV-3 cells [2]: Neither 100 ng/ml of Trastuzumab-TNFα fusion protein nor 15 nM of actinomycin D, when used alone, had an impact on survival of SKOV-3 cells
apoptosis in NCI-N87 cells ([3]; 15 nM actinomycin D alone): 25%
apoptosis in SKBR-3 cells [4]: 70%

COc1cccc2c1C(=O)c1c(O)c3c(c(O)c1C2=O)C[C@@](O)(C(=O)CO)C[C@@H]3O[C@H]1C[C@H](N)[C@H](O)[C@H](C)O1 [doxorubicin]
effect on viability of NCI-N87 cells [3]: little effect on viability
effect on viability of BT-474 cells [5]: little effect on viability
